Experiment [1] has as its target P2X purinoceptor 3 (Rattus norvegicus, UniProt P49654). The experiment in a line: The compound was evaluated for antagonist activity against recombinant rat P2X purinoceptor 3 (P2X3) at 3 uM, expressed in Xenopus oocytes. Type of experiment: functional, cell-based, Oocyte.
The target of experiment [2] is T1, P2X purinoceptor 1 (Rattus norvegicus, UniProt P47824).
T1 sequence (P47824 whole entry): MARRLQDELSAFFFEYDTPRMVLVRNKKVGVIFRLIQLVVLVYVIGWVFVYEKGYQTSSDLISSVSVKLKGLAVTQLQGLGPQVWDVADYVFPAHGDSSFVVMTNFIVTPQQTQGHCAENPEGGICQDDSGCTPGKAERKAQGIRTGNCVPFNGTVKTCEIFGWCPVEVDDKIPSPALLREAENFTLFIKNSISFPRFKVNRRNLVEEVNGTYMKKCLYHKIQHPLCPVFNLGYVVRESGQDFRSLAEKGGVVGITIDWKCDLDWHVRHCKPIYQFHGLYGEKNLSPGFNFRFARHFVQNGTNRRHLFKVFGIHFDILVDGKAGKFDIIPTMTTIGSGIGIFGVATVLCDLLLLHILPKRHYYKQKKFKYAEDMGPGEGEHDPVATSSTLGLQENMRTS
As to the kind of experiment: The compound was evaluated for antagonist activity against recombinant rat P2X purinoceptor 1 (P2X1) at 1 uM, expressed in Xenopus oocytes. The experiment is classed as functional, cell-based, Oocyte.

In experiment [3] the target is P2Y purinoceptor 1 (Meleagris gallopavo). As to the kind of experiment: The compound was evaluated for antagonist activity against phospholipase C coupled P2Y purinoceptor 1 (P2Y1) of turkey erythrocytes.
Experiment [4] deals with T2, P2Y purinoceptor 11 (Homo sapiens, UniProt Q96G91).
T2 sequence (Q96G91 whole entry): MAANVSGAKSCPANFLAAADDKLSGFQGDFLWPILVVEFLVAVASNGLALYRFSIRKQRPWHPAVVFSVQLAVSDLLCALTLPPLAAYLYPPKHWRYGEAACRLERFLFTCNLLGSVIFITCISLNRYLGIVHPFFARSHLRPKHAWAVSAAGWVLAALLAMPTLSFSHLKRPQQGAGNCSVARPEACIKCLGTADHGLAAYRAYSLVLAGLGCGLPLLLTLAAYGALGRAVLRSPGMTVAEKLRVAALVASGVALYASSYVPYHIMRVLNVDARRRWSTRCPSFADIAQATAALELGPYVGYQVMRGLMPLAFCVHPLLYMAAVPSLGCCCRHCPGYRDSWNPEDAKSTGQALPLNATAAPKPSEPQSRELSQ
As to the kind of experiment: Agonist activity against phospholipase C coupled human P2Y purinoceptor 11 (P2Y11). The experiment is classed as functional.

The target in experiment [5] is P2Y purinoceptor 12 (Homo sapiens, UniProt Q9H244). The experiment in a line: The compound was evaluated for antagonist activity against phospholipase C coupled human P2Y purinoceptor 12 (P2Y12). Type of experiment: functional.
For experiment [6], the target named is P2Y purinoceptor 6 (Homo sapiens, UniProt Q15077). As to the kind of experiment: The compound was evaluated for antagonist activity against phospholipase C coupled recombinant human P2Y purinoceptor 6 (P2Y6). Type of experiment: functional. The following applies: concentration not given here.
In experiment [7] the target is P2Y purinoceptor 4 (Homo sapiens, UniProt P51582). As to the kind of experiment: The compound was evaluated for antagonist activity against phospholipase C coupled recombinant human P2Y purinoceptor 4 (P2Y4). Type of experiment: functional.
Experiment [8] concerns the target P2Y purinoceptor 1 (Meleagris gallopavo, UniProt P49652). As to the kind of experiment: Evaluated for antagonist activity against phospholipase C coupled P2Y purinoceptor 1 (P2Y1) of turkey erythrocytes. Type of experiment: functional.
The target of experiment [9] is T3, P2X purinoceptor 2 (Rattus norvegicus, UniProt P49653).
T3 sequence (P49653 whole entry): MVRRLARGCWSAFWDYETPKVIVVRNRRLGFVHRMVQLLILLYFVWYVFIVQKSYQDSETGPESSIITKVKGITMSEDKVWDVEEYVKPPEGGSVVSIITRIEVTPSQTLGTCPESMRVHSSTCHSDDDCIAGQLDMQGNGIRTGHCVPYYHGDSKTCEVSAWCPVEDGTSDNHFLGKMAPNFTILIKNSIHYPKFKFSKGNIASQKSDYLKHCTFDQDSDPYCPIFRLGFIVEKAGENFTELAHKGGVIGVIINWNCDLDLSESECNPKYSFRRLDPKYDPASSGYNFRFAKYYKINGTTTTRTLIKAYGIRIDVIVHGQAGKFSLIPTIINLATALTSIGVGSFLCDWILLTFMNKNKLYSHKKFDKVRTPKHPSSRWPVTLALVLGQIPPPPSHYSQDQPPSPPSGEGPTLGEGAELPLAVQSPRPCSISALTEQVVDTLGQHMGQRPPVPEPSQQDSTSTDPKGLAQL
The experiment in a line: The compound was evaluated for antagonist activity against recombinant rat receptor P2X purinoceptor 2 (P2X2) at 30 uM, expressed in Xenopus oocytes. Type of experiment: functional, cell-based, Oocyte.

Experiment [10] concerns the target P2Y purinoceptor 12 (Rattus norvegicus, UniProt Q9EPX4). As to the kind of experiment: Antagonist activity against phospholipase C coupled rat P2Y purinoceptor 12 (P2Y12). The experiment is classed as functional.
For experiment [11], the target named is P2Y purinoceptor 2 (Homo sapiens, UniProt P41231). The experiment in a line: Evaluated for agonist activity against phospholipase C coupled recombinant human P2Y purinoceptor 2 (P2Y2). The experiment is classed as functional.
The target of experiment [12] is P2X purinoceptor 6 (Rattus norvegicus, UniProt P51579). As to the kind of experiment: Antagonist activity against recombinant rat P2X purinoceptor 6 (P2X6 ). Type of experiment: functional.
Experiment [13] has as its target T4, P2X purinoceptor 5 (Rattus norvegicus, UniProt P51578).
T4 sequence (P51578 whole entry): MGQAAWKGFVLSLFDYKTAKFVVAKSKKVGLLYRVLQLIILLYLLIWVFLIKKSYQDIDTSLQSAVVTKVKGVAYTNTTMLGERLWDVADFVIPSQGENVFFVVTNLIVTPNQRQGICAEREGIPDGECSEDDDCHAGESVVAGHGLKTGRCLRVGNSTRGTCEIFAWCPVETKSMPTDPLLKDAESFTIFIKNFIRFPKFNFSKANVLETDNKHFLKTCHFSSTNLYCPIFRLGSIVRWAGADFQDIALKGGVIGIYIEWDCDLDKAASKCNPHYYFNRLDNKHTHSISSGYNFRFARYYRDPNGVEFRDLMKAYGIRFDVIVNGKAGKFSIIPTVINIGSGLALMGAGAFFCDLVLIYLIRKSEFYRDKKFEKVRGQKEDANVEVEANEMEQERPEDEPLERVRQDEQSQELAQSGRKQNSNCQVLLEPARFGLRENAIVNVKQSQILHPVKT
The experiment in a line: Antagonist activity against recombinant rat P2X purinoceptor 5 (P2X5). Type of experiment: functional.

For experiment [14], the target named is T2, P2Y purinoceptor 11. The experiment in a line: The compound was evaluated for antagonist activity against phospholipase C coupled human P2Y purinoceptor 11 (P2Y11). The experiment is classed as functional.
Experiment [15] concerns the target T5, P2X purinoceptor 4 (Rattus norvegicus, UniProt P51577).
T5 sequence (P51577 whole entry): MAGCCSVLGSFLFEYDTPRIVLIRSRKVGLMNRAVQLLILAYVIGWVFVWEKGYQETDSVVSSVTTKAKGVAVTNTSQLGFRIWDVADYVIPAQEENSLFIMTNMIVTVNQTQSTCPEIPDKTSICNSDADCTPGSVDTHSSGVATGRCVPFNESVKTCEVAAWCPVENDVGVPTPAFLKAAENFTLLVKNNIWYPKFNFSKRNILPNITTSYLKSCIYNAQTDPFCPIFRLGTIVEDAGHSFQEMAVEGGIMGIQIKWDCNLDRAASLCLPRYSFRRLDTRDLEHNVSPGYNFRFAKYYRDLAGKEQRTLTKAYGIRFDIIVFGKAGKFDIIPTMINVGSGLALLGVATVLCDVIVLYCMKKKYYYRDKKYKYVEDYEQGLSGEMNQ
As to the kind of experiment: Antagonist activity against recombinant rat P2X purinoceptor 4 (P2X4) at 3 uM, expressed in Xenopus oocytes. The experiment is classed as functional, cell-based, Oocyte.

The target of experiment [16] is T1, P2X purinoceptor 1. As to the kind of experiment: The compound was evaluated for antagonist activity against recombinant rat P2X purinoceptor 1 (P2X1). The experiment is classed as functional.
The target in experiment [17] is T5, P2X purinoceptor 4. The experiment in a line: The compound was evaluated for antagonist activity against recombinant rat P2X purinoceptor 4 (P2X4) at 10 uM. Type of experiment: functional.

In general, pEC50 refers to the negative decadic logarithm of the EC50, by convention in mol/L. One may read the inhibition as the relative decrease from the control value, in per cent.

pEC50: −log10 of the molar value.

P2Y purinoceptor 6, sequence (Q15077 whole entry): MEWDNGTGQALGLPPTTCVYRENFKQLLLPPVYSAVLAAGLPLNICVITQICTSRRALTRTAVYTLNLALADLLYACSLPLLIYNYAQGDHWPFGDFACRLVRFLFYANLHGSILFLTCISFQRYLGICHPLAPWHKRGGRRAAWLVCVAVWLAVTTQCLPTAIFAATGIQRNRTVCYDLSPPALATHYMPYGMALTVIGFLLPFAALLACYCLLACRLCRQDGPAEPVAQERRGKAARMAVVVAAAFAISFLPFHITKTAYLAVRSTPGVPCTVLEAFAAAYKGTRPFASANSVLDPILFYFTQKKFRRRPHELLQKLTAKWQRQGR
P2Y purinoceptor 2, sequence (P41231 whole entry): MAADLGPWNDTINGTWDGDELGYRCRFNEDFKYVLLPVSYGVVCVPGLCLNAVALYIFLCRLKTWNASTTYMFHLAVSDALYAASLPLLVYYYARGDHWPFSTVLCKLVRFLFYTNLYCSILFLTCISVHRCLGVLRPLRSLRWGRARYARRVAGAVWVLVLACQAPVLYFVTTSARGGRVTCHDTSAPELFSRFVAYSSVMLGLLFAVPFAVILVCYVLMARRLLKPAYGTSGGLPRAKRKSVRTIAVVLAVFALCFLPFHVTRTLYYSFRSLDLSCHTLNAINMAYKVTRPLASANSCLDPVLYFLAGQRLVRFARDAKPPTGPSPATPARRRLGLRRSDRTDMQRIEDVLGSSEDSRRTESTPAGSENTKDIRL
P2X purinoceptor 6, sequence (P51579 whole entry): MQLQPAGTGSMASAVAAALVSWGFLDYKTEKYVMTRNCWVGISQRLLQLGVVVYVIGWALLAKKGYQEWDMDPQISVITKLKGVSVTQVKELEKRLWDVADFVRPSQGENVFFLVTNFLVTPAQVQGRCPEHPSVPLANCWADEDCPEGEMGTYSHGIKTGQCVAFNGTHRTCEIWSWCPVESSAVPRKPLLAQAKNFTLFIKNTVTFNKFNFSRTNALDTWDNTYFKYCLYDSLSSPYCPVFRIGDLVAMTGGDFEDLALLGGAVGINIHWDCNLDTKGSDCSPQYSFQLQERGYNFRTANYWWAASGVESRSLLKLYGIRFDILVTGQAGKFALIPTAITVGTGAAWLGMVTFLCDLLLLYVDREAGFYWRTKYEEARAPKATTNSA
P2Y purinoceptor 4, sequence (P51582 whole entry): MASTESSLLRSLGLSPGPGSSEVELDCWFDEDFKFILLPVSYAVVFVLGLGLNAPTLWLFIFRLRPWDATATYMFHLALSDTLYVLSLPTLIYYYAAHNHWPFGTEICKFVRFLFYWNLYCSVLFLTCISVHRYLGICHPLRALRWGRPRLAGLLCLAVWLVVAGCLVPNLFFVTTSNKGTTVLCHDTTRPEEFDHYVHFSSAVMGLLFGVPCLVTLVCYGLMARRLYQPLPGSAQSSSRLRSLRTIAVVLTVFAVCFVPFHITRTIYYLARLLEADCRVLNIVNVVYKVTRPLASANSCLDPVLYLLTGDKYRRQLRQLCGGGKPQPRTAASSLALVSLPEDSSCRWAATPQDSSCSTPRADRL
P2Y purinoceptor 12 (Rattus norvegicus, UniProt Q9EPX4), sequence (Q9EPX4 whole entry): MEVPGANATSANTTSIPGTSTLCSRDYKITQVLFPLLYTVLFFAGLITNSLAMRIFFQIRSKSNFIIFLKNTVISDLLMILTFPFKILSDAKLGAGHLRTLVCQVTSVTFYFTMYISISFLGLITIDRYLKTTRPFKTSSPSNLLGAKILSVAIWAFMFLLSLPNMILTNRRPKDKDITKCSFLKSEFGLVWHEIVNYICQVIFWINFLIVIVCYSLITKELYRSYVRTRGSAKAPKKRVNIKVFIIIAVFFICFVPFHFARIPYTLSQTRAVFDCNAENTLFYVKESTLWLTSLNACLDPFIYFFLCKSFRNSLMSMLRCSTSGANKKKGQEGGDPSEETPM
P2Y purinoceptor 1, sequence (P49652 whole entry): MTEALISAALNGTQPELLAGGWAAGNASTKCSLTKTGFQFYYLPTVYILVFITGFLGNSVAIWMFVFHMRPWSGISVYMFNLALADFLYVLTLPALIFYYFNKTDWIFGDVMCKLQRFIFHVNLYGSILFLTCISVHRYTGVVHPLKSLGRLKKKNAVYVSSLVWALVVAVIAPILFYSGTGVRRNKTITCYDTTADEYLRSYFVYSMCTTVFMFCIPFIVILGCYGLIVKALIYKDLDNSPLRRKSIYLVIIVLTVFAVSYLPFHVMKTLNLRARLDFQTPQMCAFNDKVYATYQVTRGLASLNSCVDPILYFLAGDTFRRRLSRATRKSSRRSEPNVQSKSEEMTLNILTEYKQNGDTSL
P2Y purinoceptor 12 (Homo sapiens, UniProt Q9H244), sequence (Q9H244 whole entry): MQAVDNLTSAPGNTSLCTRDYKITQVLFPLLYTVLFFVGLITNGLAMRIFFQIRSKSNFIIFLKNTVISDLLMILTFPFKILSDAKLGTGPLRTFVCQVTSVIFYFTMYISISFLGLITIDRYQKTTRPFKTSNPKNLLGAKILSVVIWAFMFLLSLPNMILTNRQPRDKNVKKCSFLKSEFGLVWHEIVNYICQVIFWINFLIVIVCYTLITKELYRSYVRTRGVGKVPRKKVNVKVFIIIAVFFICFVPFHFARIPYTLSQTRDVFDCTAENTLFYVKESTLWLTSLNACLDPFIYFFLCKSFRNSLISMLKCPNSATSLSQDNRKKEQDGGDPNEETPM
P2X purinoceptor 3, sequence (P49654 whole entry): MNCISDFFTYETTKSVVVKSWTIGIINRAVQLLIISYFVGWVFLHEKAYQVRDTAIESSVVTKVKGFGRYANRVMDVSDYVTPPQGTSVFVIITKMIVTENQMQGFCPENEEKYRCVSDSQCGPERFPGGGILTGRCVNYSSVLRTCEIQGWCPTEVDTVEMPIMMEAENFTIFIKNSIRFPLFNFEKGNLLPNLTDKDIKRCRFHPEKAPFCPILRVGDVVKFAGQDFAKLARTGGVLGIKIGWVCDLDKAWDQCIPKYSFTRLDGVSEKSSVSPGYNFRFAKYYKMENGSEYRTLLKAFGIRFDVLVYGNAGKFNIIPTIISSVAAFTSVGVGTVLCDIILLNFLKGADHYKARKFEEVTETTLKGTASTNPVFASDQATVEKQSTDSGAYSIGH

As for `Cc1nc(/N=N/c2cc(CP(=O)(O)O)cc(CP(=O)(O)O)c2)c(COP(=O)(O)O)c(C=O)c1O`, the pEC50 in experiment [1] is 7.66; in experiment [2] it was 8.30.
In experiment [3], `CNc1nc(Cl)nc2c1ncn2CCC(COP(=O)(O)O)COP(=O)(O)O` showed a pEC50 of 6.08.
In the case of `CCCSc1nc(N)c2ncn([C@@H]3O[C@H](COP(=O)(O)OP(=O)(O)C(Cl)(Cl)P(=O)(O)O)[C@@H](O)[C@H]3O)c2n1`, the pEC50 in experiment [4] is 5.82; in [5], 8.89.
Regarding `Cc1ccc(C(=O)Nc2ccc(S(=O)(=O)O)c3cc(S(=O)(=O)O)cc(S(=O)(=O)O)c23)cc1NC(=O)c1cccc(NC(=O)Nc2cccc(C(=O)Nc3cc(C(=O)Nc4ccc(S(=O)(=O)O)c5cc(S(=O)(=O)O)cc(S(=O)(=O)O)c45)ccc3C)c2)c1` [SURAMIN], the inhibition in experiment [6] came out at 27%. Besides, the pEC50 in experiment [7] was below 4.00; in [8], below 5.00; in experiment [9] it was 4.98; in experiment [10] it was 5.40; in experiment [11], 4.32; in experiment [2], 6.00. The pEC50 is below 4.00 in experiment [12], 5.40 in experiment [13], 4.80 in experiment [14] and below 4.00 in [15].
Take `Cc1ncc(COP(=O)(O)O)c(C=O)c1O` [PYRIDOXAL PHOSPHATE ANHYDROUS]: the negative-log EC50 (pEC50) in [16] was 5.52; in experiment [17], 3.66.

These data come from ChEMBL document CHEMBL1135773, “Purine and pyrimidine (P2) receptors as drug targets” (J Med Chem, 2002).
